Assay [1] relates to CD8+ T-cells. As to the kind of experiment: Intracellular IFN-γ and TNF-α cytokine staining, CD8+ T-cells. The class given is cell-based, human. Particulars: 6 h stimulation, 200 ng/peptide/well. As to the method:
(§1) T-cells were stimulated for 6 h with PRAME PepMix or individual PRAME peptides (200 ng/peptide/well) in the presence of anti-CD28 and CD49d antibodies (RD Biosciences, San Jose, Calif., USA) and Brefeldin A (Golgiplug, BD Biosciences). Controls (unstimulated T-cells, actin, SEE) were included in each experiment. Intracellular IFN-γ (BioLegend, San Diego, Calif.) and TNF-α (Miltenyi Biotec, Bergisch Gladbach, Germany) staining were performed on fixed and permeabilized cells (Cytofix/Cytoperm, BD Biosciences). Data was acquired with a CytoFLEX cytometer (Beckman Coulter, Brea, Calif.), and analyzed using FlowJo Flow Cytometry software (FlowJo LLC, Ashland, Oreg.).
(§2) HLA restriction of these peptides was evaluated with intracellular IFN-γ and TNF-α cytokine staining.

Assay [2] has as its system CD4+ T-cells. The experiment in a line: Intracellular IFN-γ and TNF-α cytokine staining, CD4+ T-cells. The class given is cell-based, human. Particulars: 6 h stimulation, 200 ng/peptide/well. As to the method:
as §1, §2

Assay [3] has as its system PRAME-specific T-cells. The experiment in a line: Epitope mapping by IFN-γ ELISpot (peptide mini-pools and single 15-mer peptides). The class given is cell-based, human. Particulars: 10 μg/well. The protocol: (§3) PRAME Peptides. The PRAME peptide library consisting of 125 15-mer peptides overlapping by 11 amino acids and spanning the entire sequence of PRAME protein was designed to identify HLA class 1 and HLA class H-restricted epitopes (A&A Labs, San Diego, Calif.) 23 peptide pools comprising 10-12 peptides were prepared so that each 15-mer peptide was included in only two pools (FIGS. 7A and 7B). To determine minimal PRAME epitopes, additional 9-mer peptides overlapping by 8 amino acids spanning immunogenic 15-mer peptides were obtained from A&A Labs, San Diego, Calif. All peptides were reconstituted at 10 μg/μl in DMSO and stored at −80°C. until further use.
Epitope mapping. T-cell response to pools of peptide libraries and individual PRAME peptides were determined. by IFN-γ ELISpot assay. ELISpot assay was performed as previously described. 1×10^5 T-cells/well were plated alone, with actin (negative control), SEB (positive control), each peptide pool (1μg/well) and individual peptide (10 μg/well). IFN-γ spot-forming cells (SFC) were enumerated by Zellnet Consulting (Fort Lee, N.J.).
Responses that were at least 10 SFC/1×10^5 T-cells or greater than two-fold the background level of nonstimulated T-cells or T-cells stimulated with actin were considered positive responses.
In order to map the class 1-restricted responses, a mapping grid consisting of 23 mini-pools comprising 125 individual 15-mer peptides spanning the entire PRAME protein sequence to identify PRAME epitopes eliciting a response by ex-vivo expanded T-cells was used (FIG. 7A). IFN-γ production by PRAME- sensitized T-cells in response to stimulation with mini-pools was measured by ELISpot assay.
T-cell responses to single 15-mer peptides selected from the grid and their neighboring peptides were determined by IFN-γ ELISpot assay (FIG. 3B).

Assay [4] deals with T1, HLA-B*35 (Homo sapiens, UniProt P01889, A329T/A93T/A95T/C349S/D201E/D98Y/E176V/E187L/E204Q/E69T/I218V/K202T/L119I/Q94N/R155S/R180L/S121R/S35A/S48A/T118I/V127L/V306I/V36M/Y140F/Y91F).
T1 construct: PRAME-specific T-cells were expanded from PBMCs obtained from twelve healthy donors; endogenous in cells; host or cells: ex vivo expanded PRAME-specific T-cell product from healthy donor PBMCs
The experiment in a line: IFN-γ ELISpot with anti-HLA-B*35 antibody (HLA restriction). The class given is cell-based. The note with it: versus T-cell product alone (FIG. 3G). The protocol:
(§4) Minimal epitopes recognized by HLA I-restricted cell lines were determined by IFN-γ ELISpot assay. To confirm the restricted HLA allele, anti-human HLA class 1 B35 antigen monoclonal antibody was used in the ELISpot plate (MyBioSource, San Diego, Calif.).
To confirm the HLA-B*35 restriction of FPEPEAAQP (SEQ ID NO: 6) further testing was performed using an anti-[…] antibody.

Assay [5] deals with CD8+ T-cells. The experiment in a line: Minimal 9-mer epitope determination by IFN-γ ELISpot. The class given is cell-based, human. The note with it: 9-mers overlapping by 8 amino acids. As to the method:
as §3, §4
The minimal 9-mer epitopes overlapping by 8 amino acids spanning the 15-mer peptides were determined by IFN-γ ELISpot.

“Also recorded” adds a separate entry of the source.

With “ASIYSFPEPEAAQPM (ASLYSFPEPEAAQPM) [compound 36]”, the “IFN-γ and TNF-α release by CD8+ T-cells” value in assay [1] was “released IFN-γ and TNF-α; also recorded: HLA-I-restricted”. In addition, the “IFN-γ and TNF-α release by CD4+ T-cells” value in assay [2] was “no specificity”. For the same sequence, in assay [3] (T-cell product of FIG. 3B/3C), the “T-cell response to single 15-mer PRAME peptide, IFN-γ ELISpot” value (“T-cell response” for short) was “immunogenic”.

With EEQYIAQFTSQFLSL [compound 71], the “IFN-γ and TNF-α release by CD8+ T-cells” value in assay [1] was “no specificity”. Besides, in assay [2], the “IFN-γ and TNF-α release by CD4+ T-cells” value is “released IFN-γ and TNF-α; also recorded: release of IFN-γ and TNF-α”. Further, the “T-cell response” value in assay [3] (T-cell product of FIG. 4B/4C) was “recognition”.

Take EKVKRKKNVLRLCCK [compound 50]: the “IFN-γ and TNF-α release by CD8+ T-cells” value in assay [1] is recorded as “no specificity”. The “IFN-γ and TNF-α release by CD4+ T-cells” value in assay [2] was “released IFN-γ and TNF-α; also recorded: release of IFN-γ and TNF-α”. The “T-cell response” value in assay [3] (T-cell product of FIG. 4B/4C) was “recognition”.

As for EQPFIPVEVINDLFL [compound 43], in assay [1], the “IFN-γ and TNF-α release by CD8+ T-cells” value is “released IFN-γ and TNF-α; also recorded: HLA-I-restricted”. Besides, the “IFN-γ and TNF-α release by CD4+ T-cells” value in assay [2] is given as “no specificity”. Besides, the “T-cell response” value in assay [3] (T-cell product of FIG. 3B/3C) was “immunogenic”.

Turning to FPEPEAAQP, the “specificity of T-cell product with anti-HLA-B*35 antibody” value is on record as “decreased specificity” in assay [4] and “confirms HLA restriction” in assay [4] (listed as FPEPEAAQPM). For the same sequence, the “IFN-γ secretion upon stimulation with 9-mer (minimal epitope)” value in assay [5] is “secreted IFN-γ; also recorded: minimal 9-mer peptides”.

Turning to IPVEVINDLFLKEGA [compound 44], the “IFN-γ and TNF-α release by CD8+ T-cells” value in assay [1] is “released IFN-γ and TNF-α; also recorded: HLA-I-restricted”. Also, the “IFN-γ and TNF-α release by CD4+ T-cells” value in assay [2] was “no specificity”. In addition, the “T-cell response” value in assay [3] (T-cell product of FIG. 3B/3C) is “immunogenic”.

With RLVELAGQSLLKDEA [compound 7], in assay [1], the “IFN-γ and TNF-α release by CD8+ T-cells” value was “activated”. Also, in assay [2], the “IFN-γ and TNF-α release by CD4+ T-cells” value is “activated”.

For SFPEPEAAQPMTKKR [compound 37], the “IFN-γ and TNF-α release by CD8+ T-cells” value in assay [1] was “released IFN-γ and TNF-α; also recorded: HLA-I-restricted”. For the same sequence, in assay [2], the “IFN-γ and TNF-α release by CD4+ T-cells” value is recorded as “no specificity”. For the same sequence, in assay [3] (T-cell product of FIG. 3B/3C), the “T-cell response” value is listed as “immunogenic”.

As for SPEKEEQYIAQFTSQ [compound 70], the “T-cell response” value in assay [3] (T-cell product of FIG. 4B/4C) was “recognition”.

VEVLVDLFL: the “IFN-γ secretion upon stimulation with 9-mer (minimal epitope)” value in assay [5] is given as “secreted IFN-γ; also recorded: minimal 9-mer peptides”.

Values taken from US20230190902A1, “IDENTIFICATION OF HLA-RESTRICTED PRAME PEPTIDE EPITOPES, PRAME-SPECIFIC T CELLS SUITABLE FOR "OFF-THE-SHELF" TREATMENT OF CANCER EXPRESSING PRAME” (Children's National Medical Center, priority 2020, published 2023).
